One block for each compound: values may come before it. Square brackets hold non-standard residues; d marks the D form. Peptide text beside a SMILES is read from it. * marks the point of attachment. ξ: configuration not given here. X1 = NC(CO)C(=O)NC(Cc1ccccc1)C(=O)NCCCCN*; ξE = NC(CCC(=O)O)C(=O)O
Tests used:
[1] = Cytoprotective activity against mouse PD-1 stimulated T cell assessed as rescue of PD-1 stimulated inhibition of IFN-gamma production by ELISA; assay type: functional, cell-based
[2] = target: T1, Programmed cell death protein 1/Programmed cell death 1 ligand 1 (Homo sapiens, UniProt Q15116+Q9NZQ7); test: Inhibition of PD-1/PD-L1 interaction (unknown origin) by HTRF binding assay; assay type: protein-complex assay
T1 sequence (Q15116 whole entry): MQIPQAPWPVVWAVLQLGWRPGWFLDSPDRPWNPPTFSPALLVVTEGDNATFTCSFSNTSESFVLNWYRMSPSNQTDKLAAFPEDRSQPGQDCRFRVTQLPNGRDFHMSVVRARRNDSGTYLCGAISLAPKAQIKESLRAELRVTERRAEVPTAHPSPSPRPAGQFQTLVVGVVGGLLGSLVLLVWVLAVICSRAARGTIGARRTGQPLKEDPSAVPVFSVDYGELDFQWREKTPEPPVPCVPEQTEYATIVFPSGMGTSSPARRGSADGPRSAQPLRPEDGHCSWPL
T1 sequence (Q9NZQ7 whole entry): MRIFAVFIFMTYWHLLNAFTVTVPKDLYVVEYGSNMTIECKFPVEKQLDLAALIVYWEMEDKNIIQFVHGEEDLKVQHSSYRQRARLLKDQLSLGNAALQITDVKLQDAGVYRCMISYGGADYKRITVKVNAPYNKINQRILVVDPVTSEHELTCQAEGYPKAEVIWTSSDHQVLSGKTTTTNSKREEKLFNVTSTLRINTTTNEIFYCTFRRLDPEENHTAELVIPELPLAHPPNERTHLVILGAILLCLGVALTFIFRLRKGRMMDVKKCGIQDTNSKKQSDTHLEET

[3] = target: T2, Programmed cell death 1 ligand 1 (Homo sapiens, UniProt Q9NZQ7); test: Binding affinity to human recombinant PD-L1 by surface plasmon resonance assay
T2 sequence (Q9NZQ7 whole entry): as above

[4] = Cytoprotective activity against rat PMA-stimulated PBMC cells expressing PD-1 co-cultured with human HEK293 cells expressing PD-L2 assessed as rescue of cell proliferation by cell proliferation assay; assay type: functional, cell-based
[5] = Cytoprotective activity against rat PMA-stimulated PBMC cells expressing PD-1 co-cultured with human MDA-MB-231 cells expressing PD-L1 assessed as rescue of cell proliferation by cell proliferation assay; assay type: functional, cell-based
[6] = tested on: Splenocyte; test: Rescue of cell viability in mouse PD-L1 stimulated splenocyte at 100 nM incubated for 72 hrs by CFSE proliferation assay; assay type: functional
[7] = tested on: Splenocyte; test: Cytoprotective activity against mouse splenocyte co-cultured with MDA-MB-231 cells overexpressing PD-L1 assessed as rescue of cell proliferation at 100 nM by cell proliferation assay; assay type: functional
[8] = target: T1, Programmed cell death protein 1/Programmed cell death 1 ligand 1; test: Inhibition of PD-1/PD-L1 interaction (unknown origin); assay type: protein-complex assay
[9] = target: T1, Programmed cell death protein 1/Programmed cell death 1 ligand 1; test: Inhibition of recombinant human PD-1/PD-L1 interaction incubated for 40 mins by HTRF binding assay; assay type: protein-complex assay
[10] = tested on: B16-F10; test: Antitumor activity in mouse B16-F10 cells xenografted mouse model assessed as tumor growth inhibition at 15 mg/kg,sc; assay type: functional
[11] = tested on: B16-F10; test: Antitumor activity in mouse B16-F10 cells xenografted mouse lung metastasis model assessed as reduction in lung metastasis; assay type: functional; design: scale not given: the % may be the effect or the level left
[12] = tested on: CT26; test: Antitumor activity against mouse CT26 cells xenografted BALB/c mouse assessed as reduction in tumor growth; assay type: functional; design: scale not given: the % may be the effect or the level left
[13] = target: T2, Programmed cell death 1 ligand 1; test: Inhibition of PD-L1 (unknown origin)
[14] = target: T3, V-type immunoglobulin domain-containing suppressor of T-cell activation (Homo sapiens, UniProt Q9H7M9); test: Inhibition of VISTA (unknown origin)
T3 sequence (Q9H7M9 whole entry): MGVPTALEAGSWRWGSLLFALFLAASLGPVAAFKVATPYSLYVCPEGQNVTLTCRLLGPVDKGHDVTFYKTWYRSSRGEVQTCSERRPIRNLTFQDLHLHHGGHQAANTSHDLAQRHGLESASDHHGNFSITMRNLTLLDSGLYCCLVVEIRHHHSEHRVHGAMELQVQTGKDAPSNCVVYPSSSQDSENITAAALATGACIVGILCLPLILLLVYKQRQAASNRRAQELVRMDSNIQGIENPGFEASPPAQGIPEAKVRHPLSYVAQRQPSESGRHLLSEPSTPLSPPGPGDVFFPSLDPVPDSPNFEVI

[15] = target: T1, Programmed cell death protein 1/Programmed cell death 1 ligand 1; test: Inhibition of human PD-1/PD-L1 interaction by HTRF binding assay; assay type: protein-complex assay
[16] = target: T1, Programmed cell death protein 1/Programmed cell death 1 ligand 1; test: Inhibition of PD-1/PD-L1 interaction (unknown origin) incubated for 1 to 24 hrs by HTRF assay; assay type: protein-complex assay
[17] = target: T1, Programmed cell death protein 1/Programmed cell death 1 ligand 1; test: Inhibition of PD-1/PD-L1 interaction (unknown origin) incubated for 15 mins by HTRF assay; assay type: protein-complex assay
[18] = tested on: NCI-H460; test: Antitumor activity in human NCI-H460 cells xenografted Balb/c mouse assessed as reduction in tumor mass at 4 mg/kg,sc administrated upto 72 hrs; assay type: functional; design: scale not given: the % may be the effect or the level left

IC50 [1]: > 400 nM
Compound: COc1cc(NS(=O)(=O)c2ccc(N)cc2)ncn1 [SULFAMONOMETHOXINE]

Compound: Cc1c(COc2cc(OCc3cncc(C#N)c3)c(CN[C@@H](CO)C(=O)O)cc2Cl)cccc1-c1cccc(OCCCN2CCC(O)CC2)c1
IC50 [2]: 0.48 nM

Compound: H-GNWDYNSQRAQLYNQ-OH
Kd [3]: 1380 nM

Compound: Cc1c(COc2cc(OCc3cccc(C#N)c3)c(CN[C@H](CCO)C(=O)O)cc2Cl)cccc1-c1cccc(COc2cc(OCc3cccnc3)c(CN[C@@H](CCO)C(=O)O)cc2Cl)c1
IC50 [2]: 0.04 nM

Compound: C[C@H](O)[C@H](NC(=O)N[C@@H](CC(N)=O)C(=O)NNC(=O)[C@@H](N)CO)C(=O)O
EC50 [4]: 40 nM
EC50 [5]: 30 nM
Activity [6]: 68%
Activity [7]: 87%

Compound: C[C@@H](O)[C@H](N)c1noc([C@H](Cc2ccc(O)cc2)NC(=O)N2CCC[C@H]2C(=O)O)n1
Activity [6]: 99%

Compound: Cc1c(COc2cc(OCc3cccc(C#N)c3)c(CN[C@@H](CO)C(=O)O)cc2Cl)cccc1-c1ccc2c(c1)OCCO2
IC50 [2]: 1.48 nM

Compound: C[C@H](O)[C@@H]1NC(=O)CCOCCOCCNC(=O)[C@H](CO)NC(=O)N[C@H](C(N)=O)C(=O)NNC1=O
Activity [6]: 94%

Compound: NCCCC[C@H](NC(=O)N[C@@H](CC(N)=O)C(=O)NNC(=O)[C@@H](N)CO)C(=O)O
Activity [7]: 87%

Compound: N#Cc1c(-c2ccccc2)cccc1N1CCC(NC2CCCOC2)CC1 (centres undefined)
IC50 [8]: < 1000 nM

Compound: C[C@@H](O)[C@H](N)c1nnc([C@H](CCC(N)=O)NC(=O)N[C@@H](CO)C(=O)O)o1
Activity [6]: 92%

Compound: C[C@H](O)[C@@H]1NC(=O)N[C@H](C(N)=O)C(=O)NNC(=O)[C@H](CO)NC(=O)CCOCCOCCNC1=O
Activity [6]: 95%

Compound: N#Cc1c(NC(=O)c2ccc(CNCCO)cn2)cccc1-c1ccccc1
IC50 [9]: < 10 nM

Compound: O=C(O)[C@H](CO)NCc1cc(Cl)c(OCc2cccc(-c3ccccc3)c2Br)cc1OCc1cccnc1
inhibition in vivo at 15 mg/kg [10]: 64.1%

Compound: C[C@@H](O)[C@H](NC(=O)[C@H](CC(N)=O)NC(=O)[C@@H](N)CO)C(=O)N[C@@H](CO)C(=O)NC(CCC(=O)NCCCCNC(=O)C(Cc1ccccc1)NC(=O)C(N)CO)C(N)=O (some centres undefined) (H-SNTS[ξE](X1)-NH2)
Activity [11]: 64%

Compound: Cc1c(NC(=O)c2cc(CN3CCCC[C@H]3C(=O)O)cn(C)c2=O)cccc1-c1ccccc1
IC50 [9]: < 100 nM

Compound: CC(O)[C@H](N)c1nnc([C@]2(NC(=O)N[C@@H](CO)C(=O)O)C[C@H](CC#N)C2)o1 (some centres undefined)
Activity [12]: 63.7%

IC50 [14]: 17 nM
Compound: C[C@H](O)[C@H](NC(=O)N[C@@H](CC(N)=O)c1nnc([C@@H](N)CO)s1)C(=O)O
IC50 [13]: 37 nM

Compound: Cc1cc(CN[C@@H](CO)C(=O)O)c(OCc2cncc(C#N)c2)cc1OCc1cccc(-c2ccc3c(c2)OCCO3)c1C
IC50 [2]: 2.25 nM

Compound: COc1nc(OCc2cccc(-c3cccc(COc4ccc(CNCCNC(C)=O)c(OC)n4)c3C)c2C)ccc1CNCCNC(C)=O
IC50 [15]: 125 nM

Compound: Cc1c(-c2ccccc2)cccc1-c1nc2cc(CNCCO)ccc2o1
IC50 [8]: < 1000 nM

Compound: C[C@@H](O)[C@@H]1NC(=O)C(N[C@@H](CO)C(=O)O)CCC(=O)NCCCCC(C(=O)N[C@@H](CO)C(=O)N[C@@H](Cc2ccccc2)C(N)=O)NC(=O)[C@H](CO)NC1=O (some centres undefined)
Activity [11]: 54%

Compound: CC[C@H](C)[C@H](NC(=O)[C@H](CCC(N)=O)NC(=O)[C@H](C)NC(=O)[C@H](CCCCN)NC(=O)[C@H]1CCCN1C(=O)[C@H](C)NC(=O)[C@H](CC(C)C)NC(=O)[C@H](CCC(N)=O)NC(=O)[C@@H](NC(=O)[C@@H](NC(=O)[C@H](CCCNC(=N)N)NC(=O)[C@H](Cc1ccccc1)NC(=O)[C@H](CCCCNC(=O)[C@H](Cc1ccccc1)NC(=O)[C@H](CO)NC(=O)[C@H](CCC(=O)O)NC(=O)[C@H](CO)NC(=O)[C@@H](NC(=O)[C@H](CC(N)=O)NC(=O)[C@@H](N)CO)C(C)O)NC(=O)[C@H](Cc1ccccc1)NC(=O)[C@H](CO)NC(=O)[C@H](CCC(=O)O)NC(=O)[C@H](CO)NC(=O)[C@@H](NC(=O)[C@H](CC(N)=O)NC(=O)[C@@H](N)CO)[C@@H](C)O)C(C)C)[C@@H](C)O)C(=O)N[C@@H](CCCCN)C(=O)N[C@@H](CCC(=O)O)C(N)=O (some centres undefined)
EC50 [4]: 0.72 nM
EC50 [5]: 0.41 nM

Compound: Cc1c(/C=C/c2nc(CNC(C)(CO)C(=O)O)ccc2C(F)(F)F)cccc1-c1ccc2c(c1)OCCO2 (centres undefined)
IC50 [16]: 18 nM

Compound: CNC(=O)C[C@@H]1NC(=O)O[C@@H]([C@H](C)O)C(=O)NCCOCCOCC(=O)N[C@@H](CCO)c2noc1n2
IC50 [17]: < 10 nM

Compound: COc1cc(/C=C/c2cccc(-c3ccccc3)c2)cc(OC)c1CN[C@](C)(CO)C(=O)O
IC50 [16]: 48 nM

Compound: C[C@H](O)[C@@H]1NC(=O)NCc2nc(no2)[C@H](CO)NC(=O)COCCOCCNC1=O
IC50 [17]: < 10 nM

Compound: C[C@H](NC(=O)[C@H](Cc1ccc(O)cc1)NC(=O)[C@H](CCC(N)=O)NC(=O)CNC(=O)[C@@H](N)CO)C(=O)N[C@@H](CO)C(=O)N[C@@H](Cc1ccc(O)cc1)C(=O)N[C@@H](Cc1cnc[nH]1)C(=O)N[C@@H](CS)C(=O)N[C@@H](Cc1c[nH]c2ccccc12)C(=O)N[C@@H](CS)C(=O)N[C@@H](Cc1c[nH]c2ccccc12)C(=O)N[C@@H](CCCNC(=N)N)C(=O)N[C@@H](CC(=O)O)C(=O)N1CCC[C@H]1C(=O)NCC(=O)N[C@@H](CCCNC(=N)N)C(=O)N[C@@H](CO)C(=O)NCC(=O)NCC(=O)N[C@@H](CO)C(=O)N[C@@H](CCCCN)C(=O)O (H-SGQYASYHCWCWRDPGRSGGSK-OH)
Kd [3]: 94 nM
Activity [18]: 56%

Source: ChEMBL document CHEMBL5096155, “Recent advance of peptide-based molecules and nonpeptidic small-molecules modulating PD-1/PD-L1 protein-protein interaction or targeting PD-L1 protein degradation” (Eur J Med Chem, 2021)
